Experimental data taken from patent US10597388B2, “Pyridazinone herbicides” (FMC CORPORATION, priority 2014, dated 2020).

Legend:
Experiment in all cases: Test D controlled growth environment herbicide test, pre- and postemergence
Assay type in all cases: in vivo
[1] = system: galium (catchweed bedstraw, Galium aparine)
Source text: (§1) Seeds of plant species selected from bluegrass (annual bluegrass, Poa annua), blackgrass (Alopecurus myosuroides), Canada thistle (Cirsium arvense), canarygrass (Phalaris minor), chickweed (common chickweed, Stellaria media), geranium, cutleaf (cutleaf geranium, Geranium dissectum), galium (catchweed bedstraw, Galium aparine), bromegrass, downy (downy bromegrass, Bromus tectorum), field poppy (Papaver rhoeas), field violet (Viola arvensis), foxtail, green (green foxtail, Setaria viridis), deadnettle (henbit deadnettle, Lamium amplexicaule), ryegrass, Italian (Italian ryegrass, Lolium multiflorum), kochia (Kochia scoparia), lambsquarters (Chenopodium album), oilseed rape (Brassica napus), pigweed (Amaranthus retroflexus), chamomile (scentless chamomile, Matricaria inodora), Russian thistle (Salsola kali), speedwell (bird's-eye speedwell, Veronica persica), barley, spring (spring barley, Hordeum vulgare), wheat, spring (spring wheat, Triticum aestivum), buckwheat, wild (wild buckwheat, Polygonum convolvulus), mustard, wild (wild mustard, Sinapis arvensis), oat, wild (wild oat, Avena fatua), radish, wild (wild radish, Raphanus raphanistrum), windgrass (Apera spica-venti), barley, winter (winter barley, Hordeum vulgare), and wheat, winter (winter wheat, Triticum aestivum) were planted into a silt loam soil and treated preemergence with test chemicals formulated in a non-phytotoxic solvent mixture which included a surfactant.
(§2) At the same time, these species were planted in pots containing Redi-Earth® planting medium (Scotts Company, 14111 Scottslawn Road, Marysville, Ohio 43041) comprising spaghnum peat moss, vermiculite, wetting agent and starter nutrients and treated with postemergence applications of the test chemicals formulated in the same manner. Plants ranged in height from 2 to 18 cm (1- to 4-leaf stage). Treated plants and controls were maintained in a controlled growth environment for 14 to 21 d after which time all species were compared to controls and visually evaluated. Plant response ratings, summarized in Table D, are based on a scale of 0 to 100 where 0 is no effect and 100 is complete control. A dash (-) response means no test result.

[2] = system: barley, spring (spring barley, Hordeum vulgare)
Source text: as §1, §2

[3] = system: bluegrass (annual bluegrass, Poa annua)
Source text: as §1, §2

[4] = system: oat, wild (wild oat, Avena fatua)
Source text: as §1, §2

[5] = system: field poppy (Papaver rhoeas)
Source text: as §1, §2

[6] = system: foxtail, green (green foxtail, Setaria viridis)
Source text: as §1, §2

[7] = system: pigweed (Amaranthus retroflexus)
Source text: as §1, §2

[8] = system: mustard, wild (wild mustard, Sinapis arvensis)
Source text: as §1, §2

[9] = system: barley, winter (winter barley, Hordeum vulgare)
Source text: as §1, §2

[10] = system: wheat, spring (spring wheat, Triticum aestivum)
Source text: as §1, §2

[11] = system: canarygrass (Phalaris minor)
Source text: as §1, §2

[12] = system: buckwheat, wild (wild buckwheat, Polygonum convolvulus)
Source text: as §1, §2

[13] = system: oilseed rape (Brassica napus)
Source text: as §1, §2

[14] = Postemergence, 31 g ai/ha, scale 0 to 100 (0 no effect, 100 complete control)
[15] = Postemergence, 125 g ai/ha, visual rating on scale 0 (no effect) to 100 (complete control), 14 to 21 d
[16] = Postemergence, 250 g ai/ha, scale 0 to 100 (0 no effect, 100 complete control)
[17] = Preemergence, 62 g ai/ha, scale 0 to 100 (0 no effect, 100 complete control)
[18] = Preemergence, 125 g ai/ha, scale 0 to 100 (0 no effect, 100 complete control)
[19] = Preemergence, 250 g ai/ha, scale 0 to 100, 0 no effect, 100 complete control
[20] = postemergence, 62 g ai/ha, scale 0 to 100, 0 no effect, 100 complete control

Cc1cc(C)c2sc(C)c(-c3c(O)c(C)nn(C)c3=O)c2c1 [Compound 2, 5-hydroxy-2,6-dimethyl-4-(2,5,7-trimethylbenzo[b]thien-3-yl)-3(2H)-pyridazinone]
Galium plant response rating [1, 14]: 85 | Plant response rating, Galium [1, 15]: 100 | Plant response rating, Galium [1, 16]: 100 | Plant response rating (scale of 0 to 100), Galium ([1]; Preemergence, 31 g ai/ha): 100 | Plant response rating, Galium [1, 17]: 85 | Plant response rating, Galium [1, 18]: 100 | Plant response rating, Galium [1, 19]: 100 | Plant response rating, Galium [1, 20]: 100 | Plant response rating, Barley, Spring [2, 14]: 0 | Plant response rating, Barley, Spring [2, 15]: 5 | Plant response rating, Barley, Spring [2, 16]: 5 | Plant response rating (scale of 0 to 100), Barley, Spring ([2]; Preemergence, 31 g ai/ha): 0 | Plant response rating, Barley, Spring [2, 17]: 0 | Plant response rating, Barley, Spring [2, 18]: 0 | Barley, Spring plant response rating [2, 19]: 0 | Plant response rating, Barley, Spring [2, 20]: 0 | Bluegrass plant response rating [3, 14]: 5 | Plant response rating, Bluegrass [3, 15]: 5 | Plant response rating, Bluegrass [3, 16]: 15 | Plant response rating (scale of 0 to 100), Bluegrass ([3]; Preemergence, 31 g ai/ha): 0 | Plant response rating, Bluegrass [3, 17]: 15 | Plant response rating, Bluegrass [3, 18]: 30 | Bluegrass plant response rating [3, 19]: 50 | Plant response rating, Bluegrass [3, 20]: 10 | Oat, Wild plant response rating [4, 14]: 55 | Plant response rating, Oat, Wild [4, 15]: 90 | Plant response rating, Oat, Wild [4, 16]: 100 | Plant response rating (scale of 0 to 100), Oat, Wild ([4]; Preemergence, 31 g ai/ha): 80 | Plant response rating, Oat, Wild [4, 17]: 90 | Plant response rating, Oat, Wild [4, 18]: 95 | Plant response rating, Oat, Wild [4, 19]: 100 | Plant response rating, Oat, Wild [4, 20]: 80 | Field Poppy plant response rating [5, 14]: 75 | Plant response rating, Field Poppy [5, 15]: 100 | Plant response rating, Field Poppy [5, 16]: 100 | Plant response rating (scale of 0 to 100), Field Poppy ([5]; Preemergence, 31 g ai/ha): 95 | Plant response rating, Field Poppy [5, 17]: 95 | Plant response rating, Field Poppy [5, 18]: 95 | Plant response rating, Field Poppy [5, 19]: 100 | Plant response rating, Field Poppy [5, 20]: 95 | Foxtail, Green plant response rating [6, 14]: 70 | Plant response rating, Foxtail, Green [6, 15]: 95 | Plant response rating, Foxtail, Green [6, 16]: 100 | Plant response rating (scale of 0 to 100), Foxtail, Green ([6]; Preemergence, 31 g ai/ha): 65 | Plant response rating, Foxtail, Green [6, 17]: 100 | Plant response rating, Foxtail, Green [6, 18]: 100 | Plant response rating, Foxtail, Green [6, 19]: 100 | Plant response rating, Foxtail, Green [6, 20]: 80 | Pigweed plant response rating [7, 14]: 70 | Plant response rating, Pigweed [7, 15]: 85 | Plant response rating, Pigweed [7, 16]: 95 | Plant response rating (scale of 0 to 100), Pigweed ([7]; Preemergence, 31 g ai/ha): 25 | Plant response rating, Pigweed [7, 17]: 50 | Plant response rating, Pigweed [7, 18]: 65 | Plant response rating, Pigweed [7, 19]: 100 | Plant response rating, Pigweed [7, 20]: 80 | Mustard, Wild plant response rating [8, 14]: 25 | Plant response rating, Mustard, Wild [8, 15]: 40 | Plant response rating, Mustard, Wild [8, 16]: 55 | Plant response rating (scale of 0 to 100), Mustard, Wild ([8]; Preemergence, 31 g ai/ha): 0 | Plant response rating, Mustard, Wild [8, 17]: 0 | Plant response rating, Mustard, Wild [8, 18]: 5 | Plant response rating, Mustard, Wild [8, 19]: 40 | Plant response rating, Mustard, Wild [8, 20]: 35 | Plant response rating, Barley, Winter [9, 14]: 10 | Plant response rating, Barley, Winter [9, 15]: 15 | Plant response rating, Barley, Winter [9, 16]: 10 | Plant response rating (scale of 0 to 100), Barley, Winter ([9]; Preemergence, 31 g ai/ha): 0 | Plant response rating, Barley, Winter [9, 17]: 0 | Plant response rating, Barley, Winter [9, 18]: 0 | Barley, Winter plant response rating [9, 19]: 0 | Plant response rating, Barley, Winter [9, 20]: 10 | Wheat, Spring plant response rating [10, 14]: 0 | Plant response rating, Wheat, Spring [10, 15]: 10 | Plant response rating, Wheat, Spring [10, 16]: 25 | Plant response rating (scale of 0 to 100), Wheat, Spring ([10]; Preemergence, 31 g ai/ha): 0 | Plant response rating, Wheat, Spring [10, 17]: 0 | Plant response rating, Wheat, Spring [10, 18]: 5 | Plant response rating, Wheat, Spring [10, 19]: 10 | Plant response rating, Wheat, Spring [10, 20]: 0 | Canarygrass plant response rating [11, 14]: 25 | Plant response rating, Canarygrass [11, 15]: 55 | Plant response rating, Canarygrass [11, 16]: 75 | Plant response rating (scale of 0 to 100), Canarygrass ([11]; Preemergence, 31 g ai/ha): 40 | Plant response rating, Canarygrass [11, 17]: 60 | Plant response rating, Canarygrass [11, 18]: 85 | Plant response rating, Canarygrass [11, 19]: 90 | Plant response rating, Canarygrass [11, 20]: 40 | Buckwheat, Wild plant response rating [12, 14]: 85 | Plant response rating, Buckwheat, Wild [12, 15]: 100 | Plant response rating, Buckwheat, Wild [12, 16]: 100 | Plant response rating, Buckwheat, Wild [12, 17]: 10 | Plant response rating, Buckwheat, Wild [12, 18]: 100 | Plant response rating, Buckwheat, Wild [12, 19]: 100 | Plant response rating, Buckwheat, Wild [12, 20]: 95 | Oilseed Rape plant response rating [13, 14]: 20 | Plant response rating, Oilseed Rape [13, 15]: 55 | Plant response rating, Oilseed Rape [13, 16]: 70 | Plant response rating (scale of 0 to 100), Oilseed Rape ([13]; Preemergence, 31 g ai/ha): 0 | Plant response rating, Oilseed Rape [13, 17]: 0 | Plant response rating, Oilseed Rape [13, 18]: 20 | Plant response rating, Oilseed Rape [13, 19]: 40 | Plant response rating, Oilseed Rape [13, 20]: 45
